Test system: Sprague Dawley rats
Experiment: Rat sleep study with ECoG/EMG telemetry (sleep stage scoring)
Type: in vivo
Settings: averaged over seven nights
Excerpt: This study examined the effects of the T-type calcium channel antagonist Compound A (6-chloro-3,4-dihydro-3-ethyl-4-phenyl-4-ethyl-2(1H)-quinazolinone; PCT WO 93/04047) on sleep by using electrocorticogram (ECoG) or electroencephalographic (EEG) measures to determine the efficacy of the T-type calcium channel antagonistin the altering the states of arousal or sleep.
Eight adult male Sprague Dawley rats (450-550 g; Taconic Farms, Germantown, N.Y.) were subcutaneously implanted with telemetric physiologic monitors (Model F50-EET; Data Sciences International, Arden Hills, Minn.) that were used to simultaneously record both the electrocorticogram (ECoG) and electromyographic (EMG) activities. […]
Following the completion of data collection, all data were scored with automated sleep stage analysis software, Somnologica (Medcare Co.; Buffalo, N.Y.). […] Active wake was assigned to the epoch when movement of the animal was detected within the cage, or when there was an active EMG signal and the EEG consisted of alpha and beta frequency activity. An epoch was scored as light sleep when there was no movement activity, the EMG was moderately active and the EEG consisted of either theta or theta with less than 50% of the epoch showing delta activity. Delta sleep was scored when there was no movement, reduced EMG activity, and the EEG consisted of more than 50% delta wave activity (i.e. 0.5 to 4 Hz). […]

CCN1C(=O)Nc2ccc(Cl)cc2C1(CC)c1ccccc1 (centres unmarked) [Compound A, 6-chloro-3,4-dihydro-3-ethyl-4-phenyl-4-ethyl-2(1H)-quinazolinone]
entries into awake relative to vehicle (sleep fragmentation) (FIG. 1, 30 minute bins): reduced the entries into awake relative to vehicle
wake duration relative to vehicle (FIG. 2, 30 minute bins): reduced the wake duration relative to vehicle

From US20060003985A1, “Enhancement of sleep with t-type calcium channel antagonists” (priority 2002, published 2006)
